# According to patent US20210315893A1 (Galapagos NV, priority 2017, published 2021):
# Legend:
# HFL-1 cells [1] = assay: IL-8 production assay (S1P induced IL-8); assay type: cell-based; conditions: Homo sapiens, HFL1; S1P (1 μM) induced IL-8 in HFL-1 cells, starvation medium without HSA; read-out: IL8 EC50
# Outline: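 HFL-1 fibroblasts in low-serum medium were pretreated 1 h with a 10-point 1/3 series of compound starting at 30 μM (0.3% DMSO).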
# [2] = molecular target: T1, human GPCR sphingosine 1-phosphate receptor 2 (Homo sapiens, UniProt O95136); assay: S1PR2 antagonist Ca2+ flux assay; assay type: cell-based; conditions: antagonist mode, CHO-S1PR2 cells, S1P at EC80, Ca2+ fluorescence; read-out: S1P2 EC50 (nM), S1P2 antagonist EC50
# T1 construct: host or cells: CHO
# T1 sequence (O95136 whole entry): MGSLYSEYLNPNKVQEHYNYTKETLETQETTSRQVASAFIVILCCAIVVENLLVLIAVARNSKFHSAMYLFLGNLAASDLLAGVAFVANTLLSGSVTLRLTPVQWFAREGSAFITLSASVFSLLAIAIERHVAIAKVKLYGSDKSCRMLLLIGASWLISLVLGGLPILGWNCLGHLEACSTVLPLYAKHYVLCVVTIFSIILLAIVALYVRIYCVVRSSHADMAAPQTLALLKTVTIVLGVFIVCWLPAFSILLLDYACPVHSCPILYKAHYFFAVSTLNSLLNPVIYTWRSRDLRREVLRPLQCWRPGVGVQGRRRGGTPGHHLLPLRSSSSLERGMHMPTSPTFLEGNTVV
# Outline: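 Antagonist mode: 15 min after compound addition, S1P (EC80) stimulates Fluo8-loaded, 1 h-starved CHO-S1PR2 cells, Ca2+ read over 3 min; a prior 3-min read checks compound agonism. EC50 from peak/baseline fluorescence ratio, normalised versus vehicle and S1P EC50 (antagonist) or EC100 (agonist).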
# S1PR2 = molecular target: T2, S1PR2 (Homo sapiens, UniProt O95136); assay: S1PR2 binding assay (competition with radioactively labeled S1P, SpA); conditions: membranes from stable cell line over expressing S1PR2, SpA beads; read-out: S1P2 EC50 (nM), S1PR2 binding EC50
# T2 construct: expressed in transfected cells
# T2 sequence (O95136 whole entry): as above
# Outline: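 Scintillation proximity read-out after 2 h room-temperature incubation of compound, [3H]S1P and S1PR2-overexpressing cell membranes on WGA-coated beads. Buffer: 20 mM Tris pH 7.5, 100 mM NaCl, 10 mM MgCl2, 1 mM Na3VO4, 0.4% fatty-acid-free BSA; plates counted immediately after centrifugation.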
# [3] = molecular target: T3, human GPCR sphingosine 1-phosphate receptor 5 (Homo sapiens, UniProt Q9H228); assay: S1PR5 selectivity Ca2+ flux assay (antagonist readout); assay type: cell-based; conditions: CHO cells overexpressing human S1PR5 and Gq, agonist at EC80 (20 nM), read-out: S1P5 EC50 (nM), S1P5 antagonist EC50
# T3 construct: host or cells: CHO
# T3 sequence (Q9H228 whole entry): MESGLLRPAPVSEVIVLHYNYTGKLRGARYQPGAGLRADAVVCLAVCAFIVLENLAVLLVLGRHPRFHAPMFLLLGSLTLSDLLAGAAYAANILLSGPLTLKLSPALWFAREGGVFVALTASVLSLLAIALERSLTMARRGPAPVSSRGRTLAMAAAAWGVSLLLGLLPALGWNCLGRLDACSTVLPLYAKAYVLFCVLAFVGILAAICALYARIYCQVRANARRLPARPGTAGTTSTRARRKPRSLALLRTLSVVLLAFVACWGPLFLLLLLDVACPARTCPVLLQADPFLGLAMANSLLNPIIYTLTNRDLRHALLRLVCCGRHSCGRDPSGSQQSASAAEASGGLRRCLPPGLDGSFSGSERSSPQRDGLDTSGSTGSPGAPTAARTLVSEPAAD
# Outline: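 Antagonist readout: after 15 min compound preincubation at 37° C, human S1PR5/Gq CHO cells loaded with Fluo 8 dye received an EC80 challenge of S1PR5-specific agonist, and fluorescence was recorded for 3 min. Maximal-over-background ratios, normalized as % inhibition, gave IC50 by logistic fit.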
# [4] = molecular target: T4, human GPCR sphingosine 1-phosphate receptor 1 (Homo sapiens, UniProt P21453); assay: S1PR1 selectivity Ca2+ flux assay (antagonist readout); assay type: cell-based; conditions: antagonist readout, CHO cells overexpressing human S1PR1 and Gq, S1P at EC80 (6 nM); read-out: S1P1 EC50 (nM), S1P1 antagonist EC50
# T4 construct: host or cells: CHO
# T4 sequence (P21453 whole entry): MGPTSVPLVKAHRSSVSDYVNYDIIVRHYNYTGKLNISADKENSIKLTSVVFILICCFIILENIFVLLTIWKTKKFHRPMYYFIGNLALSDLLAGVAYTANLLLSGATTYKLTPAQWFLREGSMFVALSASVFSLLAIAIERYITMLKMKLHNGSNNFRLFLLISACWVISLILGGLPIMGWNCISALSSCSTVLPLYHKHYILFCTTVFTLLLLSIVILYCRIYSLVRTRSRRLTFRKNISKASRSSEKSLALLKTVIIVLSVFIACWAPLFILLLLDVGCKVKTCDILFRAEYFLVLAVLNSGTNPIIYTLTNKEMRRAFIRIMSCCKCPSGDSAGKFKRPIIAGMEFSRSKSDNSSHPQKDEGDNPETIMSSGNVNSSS
# Outline: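 Antagonist mode: S1P challenge follows 15 min compound preincubation at 37 °C. Cells are CHO stably expressing human S1PR1, serum-starved 1 h (0.1% FAF BSA), loaded with Fluo 8. Peak-over-baseline fluorescence ratio is normalized to positive/negative controls; IC50 from logistic curve fit.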
# HFL-1 cells [5] = assay: IL8 assay in the presence of Human Serum Albumin; conditions: HFL1, read-out: HSA IL8 EC50
Structure (SMILES),EC50 (HFL-1 cells [1]),EC50 [2],EC50 (S1PR2),EC50 [3],EC50 [4],EC50 (HFL-1 cells [5])
"O=C(O)Cn1nc(Cc2nc3cc(OCC(F)F)c(Cl)cc3[nH]2)c2c(F)ccc(F)c2c1=O [Compound 126, 2-[4-[[6-chloro-5-(2,2-difluoroethoxy)-1H-benzimidazol-2-yl]methyl]-5,8-difluoro-1-oxo-phthalazin-2-yl]acetic acid]",0.00597 µM,19.1 nM,93.5 nM,19800 nM,≥ 19800 nM,0.113 µM
"CCOc1cc2nc(Cc3nn(CC(=O)O)c(=O)c4ccccc34)[nH]c2cc1C(F)(F)F [Compound 127, 2-[4-[[5-ethoxy-6-(trifluoromethyl)-1H-benzimidazol-2-yl]methyl]-1-oxo-phthalazin-2-yl]acetic acid]",0.0136 µM,8.27 nM,479 nM,19800 nM,3500 nM,0.0617 µM
"CCOc1cc2[nH]n(Cc3nn(CC(=O)O)c(=O)c4ccccc34)c(=O)c2cc1Cl [Compound 128, 2-[4-[(5-chloro-6-ethoxy-3-oxo-1H-indazol-2-yl)methyl]-1-oxo-phthalazin-2-yl]acetic acid]",0.0308 µM,28.3 nM,1970 nM,19800 nM,≥ 19800 nM,0.701 µM
"O=C(O)Cn1nc(Cn2[nH]c3cc(OCC4CC4)c(Cl)cc3c2=O)c2ccccc2c1=O [Compound 134, 2-[4-[[5-chloro-6-(cyclopropylmethoxy)-3-oxo-1H-indazol-2-yl]methyl]-1-oxo-phthalazin-2-yl]acetic acid]",0.0101 µM,10 nM,745 nM,19800 nM,12000 nM,0.163 µM
"N#Cc1cc2nn(Cc3nn(CC(=O)O)c(=O)c4ccccc34)cc2cc1OCC1CC1 [Compound 135, 2-[4-[[6-cyano-5-(cyclopropylmethoxy)indazol-2-yl]methyl]-1-oxo-phthalazin-2-yl]acetic acid]",0.0243 µM,37.5 nM,178 nM,19800 nM,≥ 19800 nM,3.46 µM
"CC(C)(C)NC(=O)Cn1nc(Cn2cc3cc(OCC4CC4)c(Cl)cc3n2)c2ccccc2c1=O [Compound 144, N-tert-butyl-2-[4-[[6-chloro-5-(cyclopropylmethoxy)indazol-2-yl]methyl]-1-oxo-phthalazin-2-yl]acetamide]",0.511 µM,191 nM,226 nM,19800 nM,≥ 19800 nM,3.4 µM
"O=C(Cn1nc(Cc2nc3cc(Cl)c(OC(F)(F)F)cc3[nH]2)c2c(c1=O)CCCC2)N[C@H]1CCC[C@@H]1O [Compound 146, 2-[4-[[5-chloro-6-(trifluoromethoxy)-1H-benzimidazol-2-yl]methyl]-1-oxo-5,6,7,8-tetrahydrophthalazin-2-yl]-N-[(1S,2S)-2-hydroxycyclopentyl]acetamide]",0.0295 µM,15.3 nM,23 nM,6640 nM,≥ 19900 nM,0.28 µM
"O=C(Cn1nc(Cc2nc3cc(Cl)c(OCC4CC4)c(F)c3[nH]2)c2ccccc2c1=O)N1CCOCC1 [Compound 149, 4-[[5-chloro-6-(cyclopropylmethoxy)-7-fluoro-1H-benzimidazol-2-yl]methyl]-2-(2-morpholino-2-oxo-ethyl)phthalazin-1-one]",0.211 µM,30.4 nM,142 nM,19800 nM,≥ 19800 nM,0.381 µM
"O=C(Cn1nc(Cc2nc3cc(OCC(F)F)c(Cl)cc3[nH]2)c2c(F)ccc(F)c2c1=O)N1CCOCC1 [Compound 152, 4-[[6-chloro-5-(2,2-difluoroethoxy)-1H-benzimidazol-2-yl]methyl]-5,8-difluoro-2-(2-morpholino-2-oxo-ethyl)phthalazin-1-one]",0.00665 µM,19.1 nM,64 nM,19800 nM,≥ 19800 nM,0.201 µM
N#Cc1ccc2c(=O)n(CC(=O)N3CCOCC3)nc(Cc3nc4cc(OCC(F)F)c(Cl)cc4[nH]3)c2c1 [Compound 153],0.0274 µM,28.5 nM,246 nM,19800 nM,≥ 19800 nM,0.254 µM
"O=C(Cn1nc(Cc2nc3cc(OCC(F)F)c(F)cc3[nH]2)c2ccccc2c1=O)N1CCOCC1 [Compound 156, 4-[[5-(2,2-difluoroethoxy)-6-fluoro-1H-benzimidazol-2-yl]methyl]-2-(2-morpholino-2-oxo-ethyl)phthalazin-1-one]",0.593 µM,59.8 nM,647 nM,19800 nM,≥ 19800 nM,0.868 µM
"O=C(Cc1nn(Cc2nc3cc(OCC(F)F)c(Cl)cc3[nH]2)c2ccccc2c1=O)N1CCOCC1 [Compound 159, 1-[6-Chloro-5-(2,2-difluoro-ethoxy)-1H-benzoimidazol-2-ylmethyl]-3-(2-morpholin-4-yl-2-oxo-ethyl)-1H-cinnolin-4-one]",0.00102 µM,9.25 nM,30.7 nM,19800 nM,≥ 19800 nM,0.014 µM
"N#CC1(COc2cc3[nH]c(Cc4nn(CC(=O)N5CCOCC5)c(=O)c5ccccc45)nc3cc2Cl)CC1 [Compound 161, 1-[[6-chloro-2-[[3-(2-morpholino-2-oxo-ethyl)-4-oxo-phthalazin-1-yl]methyl]-3H-benzimidazol-5-yl)oxymethyl]cyclopropanecarbonitrile]",0.0474 µM,15.6 nM,154 nM,19800 nM,≥ 19800 nM,0.108 µM
"N#Cc1cc2nc(Cc3nn(CC(=O)N4CCOCC4)c(=O)c4c3CCCC4)[nH]c2cc1OCC(F)F [Compound 164, 6-(2,2-difluoroethoxy)-2-[[3-(2-morpholino-2-oxo-ethyl)-4-oxo-5,6,7,8-tetrahydrophthalazin-1-yl]methyl]-1H-benzimidazole-5-carbonitrile]",0.0427 µM,31.9 nM,129 nM,19800 nM,≥ 19800 nM,0.0649 µM
"CCOc1cc2[nH]c(Cc3nn(CC(=O)N4CCOCC4)c(=O)c4c3CCCC4)nc2cc1C#N [Compound 167, 6-ethoxy-2-[[3-(2-morpholino-2-oxo-ethyl)-4-oxo-5,6,7,8-tetrahydrophthalazin-1-yl]methyl]-1H-benzimidazole-5-carbonitrile]",0.00661 µM,13.2 nM,191 nM,19800 nM,≥ 19800 nM,0.0184 µM
"CCOc1cc2[nH]c(Cc3nn(CC(=O)N4CCOCC4)c(=O)c4ccccc34)nc2cc1C(F)(F)F [Compound 168, 4-[[6-ethoxy-5-(trifluoromethyl)-1H-benzimidazol-2-yl]methyl]-2-(2-morpholino-2-oxo-ethyl)phthalazin-1-one]",0.00457 µM,11.9 nM,86.4 nM,19800 nM,≥ 19800 nM,0.0281 µM
"O=C(Cn1cc(Cc2nc3cc(OCC(F)F)c(Cl)cc3[nH]2)c2ccccc2c1=O)N1CCOCC1 [Compound 169, 4-[6-Chloro-5-(2,2-difluoro-ethoxy)-1H-benzoimidazol-2-ylmethyl]-2-(2-morpholin-4-yl-2-oxo-ethyl)-2H-isoquinolin-1-one]",0.0487 µM,19.9 nM,375 nM,19800 nM,≥ 19800 nM,0.4 µM
"CCOc1cc2[nH]c(Cc3nn(CC(=O)N4CCOCC4)c(=O)c4ccccc34)nc2cc1C#N [Compound 170, 6-ethoxy-2-[[3-(2-morpholino-2-oxo-ethyl)-4-oxo-phthalazin-1-yl]methyl]-1H-benzimidazole-5-carbonitrile]",0.0106 µM,42.5 nM,112 nM,19800 nM,≥ 19800 nM,0.137 µM
"CC(F)(F)COc1cc2[nH]c(Cc3nn(CC(=O)N4CCOCC4)c(=O)c4ccccc34)nc2cc1Cl [Compound 172, 4-[[5-chloro-6-(2,2-difluoropropoxy)-1H-benzimidazol-2-yl]methyl]-2-(2-morpholino-2-oxo-ethyl)phthalazin-1-one]",0.0291 µM,7.57 nM,15.8 nM,19800 nM,≥ 19800 nM,0.0334 µM
